Results reported in patent US11028079B2 (ConverGene LLC, priority 2015, dated 2021).

Target: T1, BRD4 bromodomains (Homo sapiens, UniProt O60885)
T1 construct: fused on or other part: T7 phage capsid protein (phage-display fusion; the phage DNA is read out by qPCR)
Experiment: BROMOscan bromodomain competition binding assay (DiscoveRx)
Conditions: Kd from 11 compound concentrations ranging from 0 to 10 μM, read-out: BROMOscan Relative Activity
Summary of the method: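 Compounds in 0.1% DMSO/0.9% MEG competed with a solid-phase acetylated peptide for T7 phage-fused BRD4 bromodomains, with the retained bromodomain measured by qPCR.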

Row | Kd | SMILES
1 | < 500 nM | Cc1noc(C)c1-c1ccc2nc(-c3cnn(CCN(C)C)c3)nc(NCc3cccc(Cl)c3)c2c1 [Example 60, N-(3-chlorobenzyl)-2-(1-(2-(dimethylamino)ethyl)-1H-pyrazol-4-yl)-6-(3,5-dimethylisoxazol-4-yl)quinazolin-4-amine]
2 | < 500 nM | Cc1noc(C)c1-c1ccc2nc(N3CCN(CC(C)(C)O)CC3)nc(N3CCOC[C@@H]3c3ccccc3)c2c1 [Example 295, (S)-1-(4-(6-(3,5-dimethylisoxazol-4-yl)-4-(3-phenylmorpholino)quinazolin-2-yl)piperazin-1-yl)-2-methylpropan-2-ol]
3 | < 500 nM | Cc1noc(C)c1-c1ccc2nc(N3CCc4c(ncn4C)C3)nc(N3CCOC[C@@H]3c3ccccc3)c2c1 [Example 328, (S)-4-(6-(3,5-dimethylisoxazol-4-yl)-2-(1-methyl-1,4,6,7-tetrahydro-5H-imidazo[4,5-c]pyridin-5-yl)quinazolin-4-yl)-3-phenylmorpholine]
4 | < 500 nM | Cc1noc(C)c1-c1ccc2nc(C(=O)NC3CN(C)C3)nc(NCc3cccc(Cl)c3)c2c1 [Example 198, 4-((3-chlorobenzyl)amino)-6-(3,5-dimethylisoxazol-4-yl)-N-(1-methylazetidin-3-yl)quinazoline-2-carboxamide]
5 | 500 to 5000 nM | Cc1noc(C)c1-c1ccc2cc(N3CCN(CCN(C)C)CC3)nc(NCc3cccc(Cl)c3)c2c1 [Example 43, N-(3-chlorobenzyl)-3-(4-(2-(dimethylamino)ethyl)piperazin-1-yl)-7-(3,5-dimethylisoxazol-4-yl)isoquinolin-1-amine]
6 | < 500 nM | Cc1ccc(CNc2nc(N3CCN(CCN(C)C)CC3)nc3ccc(-c4c(C)noc4C)cc23)s1 [Example 88, 2-(4-(2-(dimethylamino)ethyl)piperazin-1-yl)-6-(3,5-dimethylisoxazol-4-yl)-N-((5-methylthiophen-2-yl)methyl)quinazolin-4-amine]
7 | < 500 nM | Cc1noc(C)c1-c1ccc2nc(C(=O)NC3CCN(C)CC3)nc(N3CCOC[C@@H]3c3ccccc3)c2c1 [Example 280, (S)-6-(3,5-dimethylisoxazol-4-yl)-N-(1-methylpiperidin-4-yl)-4-(3-phenylmorpholino)quinazoline-2-carboxamide]
8 | < 500 nM | Cc1noc(C)c1-c1ccc2nc(N3CCN(CC(N)=O)CC3)nc(NCc3cccc(Cl)c3)c2c1 [Example 54, 2-(4-(4-((3-chlorobenzyl)amino)-6-(3,5-dimethylisoxazol-4-yl)quinazolin-2-yl)piperazin-1-yl)acetamide]
9 | < 500 nM | Cc1noc(C)c1-c1ccc2nc(N3CCN(C)CC3)nc(NCc3cccc(Cl)c3)c2c1 [Example 6, N-(3-chlorobenzyl)-6-(3,5-dimethylisoxazol-4-yl)-2-(4-methylpiperazin-1-yl)quinazolin-4-amine]
10 | < 500 nM | Cc1noc(C)c1-c1ccc2nc(N3CCC4(CCC(=O)N4C)CC3)nc(N3CCOC[C@@H]3c3ccccc3)c2c1 [Example 330, (S)-8-(6-(3,5-dimethylisoxazol-4-yl)-4-(3-phenylmorpholino)quinazolin-2-yl)-1-methyl-1,8-diazaspiro[4.5]decan-2-one]
11 | < 500 nM | Cc1noc(C)c1-c1ccc2nc(C(=O)NCc3cncn3C)nc(N3CCOC[C@@H]3c3ccccc3)c2c1 [Example 279, (S)-6-(3,5-dimethylisoxazol-4-yl)-N-((1-methyl-1H-imidazol-5-yl)methyl)-4-(3-phenylmorpholino)quinazoline-2-carboxamide]
12 | < 500 nM | Cc1noc(C)c1-c1ccc2nc(C(=O)NCC3CN(C)C3)nc(NC3(c4cccc(Cl)c4)CC3)c2c1 [Example 240, 4-((1-(3-chlorophenyl)cyclopropyl)amino)-6-(3,5-dimethylisoxazol-4-yl)-N-((1-methylazetidin-3-yl)methyl)quinazoline-2-carboxamide]
13 | < 500 nM | Cn1cc(-c2ccc3nc(N4CCN(C(=O)CN)CC4)nc(NCc4cccc(Cl)c4)c3c2)ccc1=O [Example 107, 5-(2-(4-(2-aminoacetyl)piperazin-1-yl)-4-((3-chlorobenzyl)amino)quinazolin-6-yl)-1-methylpyridin-2(1H)-one]
14 | < 500 nM | Cc1noc(C)c1-c1ccc2ncnc(NCc3cccc(Cl)c3)c2c1 [Example 2, N-(3-chlorobenzyl)-6-(3,5-dimethylisoxazol-4-yl)quinazolin-4-amine]
15 | < 500 nM | Cc1noc(C)c1-c1ccc2nc(C(=O)NC3CCOCC3)cc(NCc3cccc(Cl)c3)c2c1 [Example 236, 4-((3-chlorobenzyl)amino)-6-(3,5-dimethylisoxazol-4-yl)-N-(tetrahydro-2H-pyran-4-yl)quinoline-2-carboxamide]
16 | < 500 nM | Cc1noc(C)c1-c1ccc2nc(N3CCN(CCN(C)C)CC3)cc(NCc3cccc(Cl)c3)c2c1 [Example 26, N-(3-chlorobenzyl)-2-(4-(2-(dimethylamino)ethyl)piperazin-1-yl)-6-(3,5-dimethylisoxazol-4-yl)quinolin-4-amine]
17 | < 500 nM | Cc1noc(C)c1-c1ccc2nc(N3CCN(C[C@@H](C)O)CC3)nc(NCc3cccc(Cl)c3)c2c1 [Example 46, (R)-1-(4-(4-((3-chlorobenzyl)amino)-6-(3,5-dimethylisoxazol-4-yl)quinazolin-2-yl)piperazin-1-yl)propan-2-ol]
18 | 500 to 5000 nM | Cc1noc(C)c1-c1ccc2nc(N3CCC(CO)CC3)nc(NCc3cccc(Cl)c3)c2c1 [Example 23, (1-(4-((3-chlorobenzyl)amino)-6-(3,5-dimethylisoxazol-4-yl)quinazolin-2-yl)piperidin-4-yl)methanol]
19 | < 500 nM | CNC(=O)Cn1cc(-c2nc(NCc3cncc(Cl)c3)c3cc(-c4c(C)noc4C)ccc3n2)cn1 [Example 141, 2-(4-(4-(((5-chloropyridin-3-yl)methyl)amino)-6-(3,5-dimethylisoxazol-4-yl)quinazolin-2-yl)-1H-pyrazol-1-yl)-N-methylacetamide]
20 | < 500 nM | Cn1cc(-c2ccc3nc(-c4cnn(CC(C)(C)O)c4)nc(NCc4cccc(Cl)c4)c3c2)ccc1=O [Example 103, 5-(4-((3-chlorobenzyl)amino)-2-(1-(2-hydroxy-2-methylpropyl)-1H-pyrazol-4-yl)quinazolin-6-yl)-1-methylpyridin-2(1H)-one]
21 | < 500 nM | Cc1noc(C)c1-c1ccc2nc(C(=O)NCc3cnn(C)c3C)nc(NCc3cccc(Cl)c3)c2c1 [Example 190, 4-((3-chlorobenzyl)amino)-N-((1,5-dimethyl-1H-pyrazol-4-yl)methyl)-6-(3,5-dimethylisoxazol-4-yl)quinazoline-2-carboxamide]
22 | < 500 nM | Cc1noc(C)c1-c1ccc2nc(C(=O)NCc3nccn3C)nc(NCc3cccc(Cl)c3)c2c1 [Example 251, 4-((3-chlorobenzyl)amino)-6-(3,5-dimethylisoxazol-4-yl)-N-((1-methyl-1H-imidazol-2-yl)methyl)quinazoline-2-carboxamide]
23 | < 500 nM | Cn1cc(-c2ccc3nc(N4CCN(C(=O)CO)CC4)nc(NCc4cccc(Cl)c4)c3c2)ccc1=O [Example 106, 5-(4-((3-chlorobenzyl)amino)-2-(4-(2-hydroxyacetyl)piperazin-1-yl)quinazolin-6-yl)-1-methylpyridin-2(1H)-one]
24 | 500 to 5000 nM | Cc1noc(C)c1-c1ccc2nc(-c3csc(CO)c3)nc(N3CCOC[C@@H]3c3ccccc3)c2c1 [Example 325, (S)-(4-(6-(3,5-dimethylisoxazol-4-yl)-4-(3-phenylmorpholino)quinazolin-2-yl)thiophen-2-yl)methanol]
